Each structure is given as a SMILES string.

The results in this text go back to PMC10587737, “Dracorhodin targeting CMPK2 attenuates inflammation: A novel approach to sepsis therapy” (Clinical and Translational Medicine, 2023).

For one data set, the target named is CMPK2 mutant at K282. Put plainly: ADP-GLO kinase activity of CMPK2 K282 mutant. Type of data set: biochemical, human. The method, then: Human CMPK2 and K265, K282 and K320 mutated CMPK2 cDNA were cloned and inserted into the pTT5 vector, and the constructed plasmid was amplified by the DH5α strain. The C‐terminus of the cDNA was fused with a 6× His tag, and the N‐terminus was truncated by 22 amino acids (Figure 1B–F and Supporting Information Figure S5A,B). When the free‐style 293‐F cells reached the proper density, approximately 1 mg of expression plasmid was premixed with 3 mg polyethylenimine in UltraFectin medium and incubated prior to transfection. This mixture was then added to the appropriate amount of fresh cell culture medium, incubated for 30 min and collected after 48 h.
CMPK2 activity was measured by the ADP‐GLO kinase assay according to the guidelines specified in the manufacturer's instructions. In the activity assay, the amount of ADP formed in the CMPK2 reaction was equal to the ATP consumption and proportional to the increase in luminescence generated in the luciferase reaction, which is the experimental principle shown in Figure 1I.
(In general: In ADP-Glo the light output rises with the ADP produced.)

In data set [1] the test system is LPS-induced septic shock in Cmpk2^∆DMye mice. Put plainly: LPS-induced septic shock in myeloid-specific Cmpk2-deficient mice. Type of data set: in vivo, mouse. The following applies: DP 40 mg/kg, LPS 20 mg/kg, 72 h. The method, then:
The C57BL/6J mice used in the studies were obtained from the Model Animal Research Center of Shanghai University of Traditional Chinese Medicine. All animals were housed under a 12-hr light/dark cycle at 22-24°C with unrestricted access to food and water for the duration of the experiment except during fasting tests. Myeloid-specific Cmpk2-deficient (Cmpk2^DMye) mice were donated by Prof. Huazhang An from Shandong Provincial Key Laboratory for Rheumatic Disease and Translational Medicine. All animal experiments were approved by the Regional Ethics Committee of Shanghai University of Traditional Chinese Medicine.
Sepsis was induced by intraperitoneal injection of 8- to 12-week-old gender-matched wild-type mice with LPS (E. coli O111:B4, Sigma-Aldrich) at 20 mg per kg body weight. Mouse survival was monitored every 1 h after injection for a total of 72 h. In a separate experiment, mice were treated with the same dose of LPS, and immune sera were collected 6 h post injection. Then, the abdominal cavity was washed with PBS. The levels of IL-1β and TNF-α in serum and peritoneal lavage ﬂuid were determined by ELISA. Then, the livers, kidneys and lungs were immediately removed and washed in ice-cold PBS. They were fixed with 4% paraformaldehyde, which was used for hematoxylin-eosin (H&E), Masson staining and Sirius red staining.

In the next data set the test system is BMDMs. Put plainly: CCK-8 cytotoxicity assay. Type of data set: cell-based, mouse. Particulars: DP 5–80 μM. The protocol:
To detect the viability of cells, a cell counting kit 8 (CCK-8) assay was performed. BMDMs were seeded at 1×10^6 cells/ml in a 96-well plate and incubated overnight at 37℃. Then, we treated the cells with different concentrations of DP (0-160 μM) for 24 h, added CCK-8 reagent to the cell medium and incubated the cells for 1 h. Then, the optical density was measured at a wavelength of 450 nm.
A general note: Formazan colour is commonly taken as a measure of viable cells.

In data set [2] the target is T1, purified CMPK2 protein (WT) (Homo sapiens, UniProt Q5EBM0).
T1 construct: the N‐terminus was truncated by 22 amino acids; 6xHis (C); made in house; host or cells: FreeStyle 293-F cells (pTT5 vector)
T1 sequence (Q5EBM0 22-449): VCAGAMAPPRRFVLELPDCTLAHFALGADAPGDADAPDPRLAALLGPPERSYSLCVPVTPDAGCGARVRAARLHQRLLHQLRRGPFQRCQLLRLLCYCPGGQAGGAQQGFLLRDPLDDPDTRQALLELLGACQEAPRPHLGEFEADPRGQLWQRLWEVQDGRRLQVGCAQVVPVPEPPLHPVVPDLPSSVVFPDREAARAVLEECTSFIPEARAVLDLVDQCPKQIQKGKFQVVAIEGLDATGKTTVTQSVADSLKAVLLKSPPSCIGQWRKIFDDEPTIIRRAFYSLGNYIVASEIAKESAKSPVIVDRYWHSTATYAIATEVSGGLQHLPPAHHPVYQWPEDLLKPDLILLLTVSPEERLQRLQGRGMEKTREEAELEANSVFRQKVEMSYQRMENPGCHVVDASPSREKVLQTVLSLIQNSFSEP
Put plainly: Microscale thermophoresis (MST) binding to CMPK2. The protocol: The MST assay is an emerging technique used to quantitatively elucidate binding. The binding parameter between CMPK2 and DP was measured using MST on a Monolith NT.115 system (Germany). CMPK2 was fluorescently labeled with the Monolith NT Protein Labeling Kit RED (L018, NanoTemper Technologies GmbH, Munich, Germany) according to the manufacturer's instructions. The Monolith NT.115 system was used with Monolith NT.115 standard capillaries (M0-[…]). MST assay buffer was used to dilute the labeled CMPK2 to 2 μM. Sixteen dilutions (1:1) of the ligand were prepared using the same buffer, starting at a concentration of 10 μM. An equivalent volume of the labeled CMPK2 was added to each of the dilutions and loaded into Monolith NT.115 standard treated capillaries (Nano Temper Technologies), which were used to measure the MST trace at a temperature of 27°C. The experimental parameters were adjusted to medium MST power and 40% LED/excitation power. The binding and dissociation constants (Kd) were evaluated and calculated using M0-Affinity analysis software version 2.1.3 (Nano Temper Technologies) for the ligand.
Background: Microscale thermophoresis detects binding through changes in fluorescence in a small temperature gradient.

For data set [3], the system named is cellular CMPK2 activity in BMDMs. Put plainly: Effect on cellular CMPK2 activity (ADP-Glo on cell lysates). The data set is classed as cell-based, mouse. The method, then: Primary BMDMs were generated by culturing mouse bone marrow cells in the presence of 20 ng/ml M-CSF conditioned medium for 7 days. BMDMs were seeded in 6-well plates overnight in FBS-free DMEM. After adhering to the wall, different concentrations of DP were added and treated for 12 hours. On day 2, after priming with ultrapure LPS (200 ng/ml) for 4 h, BMDMs (1 × 10^6 cells/ml) were further stimulated with ATP (4 mM) or Nigericin (10 μM) for 45 min. Cell lysates were collected for ADP-Glo™ Kinase Assay (Promega, Madison, WI, USA).

In a further data set the target is T2, CMPK2 (Homo sapiens, UniProt Q5EBM0).
T2 sequence (Q5EBM0 22-449): T1 sequence (Q5EBM0 22-449)
Put plainly: Ultrafiltration-affinity mass spectrometry screening (FC, CMPK2 vs BSA). The data set is classed as binding. On the set-up: the N‐terminus was truncated by 22 amino acids; 6xHis (C); made in house; host or cells: FreeStyle 293-F cells (pTT5 vector).

As a reminder, the Kd is a measure of binding affinity in units of concentration. Lower therefore signals tighter binding. `COc1c2ccc(-c3ccccc3)oc-2cc(=O)c1C` [compound 73, Dracohodin perochlorate]: on CMPK2 mutant at K282, the “kinase activity of the mutant at K282” value was “slight inhibitory effect”. The survival rate result in data set [1] is “did not further improve”. For the same compound, the cell viability result in the data set with BMDMs is “no significant change”. Besides, the dissociation constant Kd in data set [2] amounted to 350 ± 34.9 nM. For the same compound, in data set [3] (DP 10 μM), the “cellular CMPK2 inhibition” value is reported as “enhanced significantly”. For the same compound, the “cellular CMPK2 enzyme activity” value in data set [3] (DP 2.5 and 5 μM) is reported as “tendency to inhibit”. Besides, on CMPK2 (affinity mass spectrometry competition, Figure S3C), the “binding between dUMP and CMPK2” value is recorded as “interfered”. Also, the “FC Negative” value on CMPK2 (negative ion mode, ratio of MS response CMPK2 vs BSA) is on record as 3.00. The “FC Positive” value at CMPK2 (positive ion mode, ratio of MS response CMPK2 vs BSA) amounted to 4.32.
